Laboratory results: US4636500A, “N-(phenoxyalkyl)imidazoles as selective inhibitors of the thromboxane synthetase enzyme and pharmaceutical compositions thereof” (Pfizer Inc., priority 1978, dated 1987)
Counter-ions that a name gives are not always drawn.

Columns and labels:
prostacyclin synthetase [1] = molecular target: T1, prostacyclin synthetase (Sus scrofa, UniProt A0A5G2QT35); conditions: pig aorta microsomes; pre-incubation of the enzyme; literature; cited from earlier work
T1 construct: Pig aorta microsomes; from tissue; host or cells: pig aorta microsomes
T1 sequence (A0A5G2QT35 1-497): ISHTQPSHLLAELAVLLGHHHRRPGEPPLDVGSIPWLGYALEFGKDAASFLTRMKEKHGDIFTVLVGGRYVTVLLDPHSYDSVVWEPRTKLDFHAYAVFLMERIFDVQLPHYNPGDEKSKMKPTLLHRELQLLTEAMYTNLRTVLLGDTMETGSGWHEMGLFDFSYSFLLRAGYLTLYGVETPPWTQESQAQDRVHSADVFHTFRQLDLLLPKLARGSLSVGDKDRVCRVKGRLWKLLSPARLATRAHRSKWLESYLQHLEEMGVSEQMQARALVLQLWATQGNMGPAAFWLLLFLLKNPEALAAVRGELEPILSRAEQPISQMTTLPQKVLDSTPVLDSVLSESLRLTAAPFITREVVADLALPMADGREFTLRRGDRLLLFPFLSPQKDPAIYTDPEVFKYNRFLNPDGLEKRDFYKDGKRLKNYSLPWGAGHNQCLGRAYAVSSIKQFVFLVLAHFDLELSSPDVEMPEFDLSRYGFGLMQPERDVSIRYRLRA

prostacyclin synthetase [2] = molecular target: T1, prostacyclin synthetase; test: Prostacyclin (PGI2) synthetase inhibition; pig aorta microsomes, rabbit aorta strip bioassay; type: biochemical; conditions: 5 min pre-incubation, read-out: Molar concentration causing 50% inhibition of (3) prostacyclin synthetase
Description: The effect of the compounds of the formula (I) on the thromboxane synthetase enzyme, and the prostacyclin synthetase and cyclo-oxygenase enzymes has been measured by the following in vitro enzyme assays:
Pig aorta microsomes (Nature, 1976, 263, 663) are incubated (30 sec.; 22° C.) with PGH2 produced as in 1) and aliquots bio-assayed as in 1. […] The test compound is then pre-incubated with the enzyme for 5 minutes, and its ability to prevent the decrease in tension is measured.
The results of these tests are shown in the following Table, which gives the molar concentration of each compound which caused a 50% change in the effect of the relevant enzyme on isometric tension, i.e. caused a 50% inhibition of the action of that enzyme.

cyclo-oxygenase = molecular target: T2, cyclo-oxygenase (Ovis aries, UniProt P05979); test: Cyclo-oxygenase inhibition; ram seminal vesicle microsomes, rabbit aorta strip bioassay; type: biochemical; conditions: 5 min pre-incubation, read-out: Molar concentration causing 50% inhibition of (2) cyclo-oxygenase
T2 construct: Ram seminal vesicle microsomes; from tissue; host or cells: ram seminal vesicle microsomes
T2 sequence (P05979 25-600): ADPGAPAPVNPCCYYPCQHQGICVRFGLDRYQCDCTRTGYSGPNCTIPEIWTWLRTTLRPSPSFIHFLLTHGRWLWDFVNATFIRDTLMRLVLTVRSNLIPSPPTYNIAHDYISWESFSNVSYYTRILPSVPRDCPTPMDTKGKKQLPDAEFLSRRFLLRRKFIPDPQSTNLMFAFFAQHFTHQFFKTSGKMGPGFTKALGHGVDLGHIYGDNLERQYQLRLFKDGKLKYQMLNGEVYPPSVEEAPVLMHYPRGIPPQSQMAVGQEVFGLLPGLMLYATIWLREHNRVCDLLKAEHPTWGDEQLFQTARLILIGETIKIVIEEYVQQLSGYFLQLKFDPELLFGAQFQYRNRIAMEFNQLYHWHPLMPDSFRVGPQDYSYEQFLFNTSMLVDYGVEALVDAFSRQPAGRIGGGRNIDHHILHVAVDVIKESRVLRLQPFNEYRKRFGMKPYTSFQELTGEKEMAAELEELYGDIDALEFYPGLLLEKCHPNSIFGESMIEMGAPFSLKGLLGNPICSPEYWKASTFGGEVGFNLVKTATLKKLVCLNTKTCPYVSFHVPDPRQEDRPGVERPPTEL
Description: Ram seminal vesicle microsomes(Biochemistry, 1971, 10, 2372) are incubated with arachidonic acid (100 μM: 1 min.: 22°) to produce PGH2 and aliquots of the reaction mixture injected into a stream of Krebs-bicarbonate at 37° C. (containing a mixture of antagonists (Nature, […], 218, 1135) and indomethacin (Brit. J. Pharmacol., 1972, 45, 451) which is superfusing a spirally-cut rabbit aorta strip (Nature, 1969, 223, 29). The ability of a compound to inhibit the enzyme is measured by comparing the increases in isometric tension produced by PGH2 in the absence of the test compound, and following pre-incubation of the enzyme with the test compound for 5 minutes.

thromboxane synthetase = molecular target: T3, thromboxane synthetase (Homo sapiens, UniProt P24557); test: Thromboxane A2 (TxA2) synthetase inhibition; Indomethacin pretreated human platelet microsomes, rabbit aorta superfusion bioassay; type: biochemical; conditions: for IC50: human platelet microsomes, 5 min pre-incubation, read-out: Molar concentration causing 50% inhibition of (1) thromboxane synthetase; for Ratio of (3) to (1): prostacyclin synthetase / thromboxane synthetase 50% inhibition concentrations
T3 construct: human platelet microsomes; from tissue; host or cells: human blood platelets (indomethacin-pretreated), microsomes
T3 sequence (P24557 1-533): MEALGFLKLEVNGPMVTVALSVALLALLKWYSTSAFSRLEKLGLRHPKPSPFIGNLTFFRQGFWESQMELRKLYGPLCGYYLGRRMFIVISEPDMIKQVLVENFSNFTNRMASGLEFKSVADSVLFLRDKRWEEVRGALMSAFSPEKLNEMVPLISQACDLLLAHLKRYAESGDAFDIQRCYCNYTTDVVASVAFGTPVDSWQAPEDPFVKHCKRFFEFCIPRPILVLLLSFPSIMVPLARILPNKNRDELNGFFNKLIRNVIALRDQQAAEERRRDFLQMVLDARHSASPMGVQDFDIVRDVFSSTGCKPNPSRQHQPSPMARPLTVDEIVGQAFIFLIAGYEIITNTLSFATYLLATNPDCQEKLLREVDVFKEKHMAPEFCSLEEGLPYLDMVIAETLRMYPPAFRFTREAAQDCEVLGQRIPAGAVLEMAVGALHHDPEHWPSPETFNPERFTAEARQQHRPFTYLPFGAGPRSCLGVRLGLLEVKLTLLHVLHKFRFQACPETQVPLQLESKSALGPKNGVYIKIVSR
Description: Indomethacin pretreated human platelet microsomes (Science 1976, 193, 163) are incubated (2 min.: 0° C.) with PGH2 (produced as in 1) and aliquots of the reaction mixture superfused over two rabbit aorta spirals which are separated by a delay coil (2 min.). The latter is required to allow the selective decay of the more unstable thromboxane A2 (Proc. Nat. Acad. Sci. 1975, 72, 2994) thereby enabling the separate measurement of increased isometric tension due to the TxA2 formed and the PGH2 remaining. The test compound is pre-incubated with the enzyme for 5 minutes, and its ability to inhibit the thromboxane synthetase enzyme is measured as its reduction of the TxA2 component of the isometric tension.

[3] = system: human blood platelet aggregation; test: in vitro inhibition of human blood platelet aggregation; type: cell-based; conditions: human platelets, qualitative
Excerpt: In addition to the above as in vitro assay for measuring the inhibition of human blood platelet aggregation has been described and this may be predictive of anti-thrombotic efficacy clinically (Lancet (ii), 1974, 1223; J. Exp. Med., 1967, 126, 171).

cyclo-oxygenase enzyme = conditions: background statement; cited from earlier work
rabbits = conditions: intravenous arachidonic acid, literature; cited from earlier work
[4] = system: human blood platelet aggregation; conditions: human blood platelets; literature; cited from earlier work
aggregation of platelets = conditions: rat abdominal aorta, in vivo; literature; cited from earlier work

For CCCCCC(/C=C/C=C\C/C=C\C/C=C\CCCC(=O)O)OO (stereo not shown) [15-hydroperoxy-arachidonic acid], the “prevention of the decrease in PGH2-induced tension (PGI2 synthetase inhibition)” value (prostacyclin synthetase [1]) is given as “prevented completely”.

With NC(=O)c1ccc(OCCn2ccnc2)cc1 [Example 1, 1-[2-(4-Carbamoylphenoxy)ethyl]imidazole] the IC50 (prostacyclin synthetase [2]) was over 100000 nM, the IC50 (cyclo-oxygenase) was over 100000 nM and the IC50 (thromboxane synthetase) was 22 nM. For the same compound, the “Ratio of (3) to (1)” value (thromboxane synthetase) was > 4,500.

In the case of NC(=O)c1ccccc1OCCn1ccnc1 [Example 2], the IC50 (thromboxane synthetase) is reported as 10000 nM.

NC(=O)Cc1ccc(OCCn2ccnc2)cc1 [Example 3] gave an IC50 (thromboxane synthetase) of 1000 nM.

With CCOC(=O)c1ccccc1OCCn1ccnc1 [Example 4, 1-[2-(2-ethoxycarbonyl-phenoxy)ethyl]imidazole] the IC50 (prostacyclin synthetase [2]) was over 100000 nM, the IC50 (thromboxane synthetase) was 40 nM and the “Ratio of (3) to (1)” value (thromboxane synthetase) was > 2,500.

For CCOC(=O)Cc1cccc(OCCn2ccnc2)c1 [Example 7], the IC50 (prostacyclin synthetase [2]) was 100000 nM, the IC50 (thromboxane synthetase) was 46 nM and the “Ratio of (3) to (1)” value (thromboxane synthetase) was 2,200.

For CCOC(=O)Cc1ccc(OCCn2ccnc2)cc1 [Example 8], the IC50 (prostacyclin synthetase [2]) was over 100000 nM, the IC50 (thromboxane synthetase) was 34 nM and the “Ratio of (3) to (1)” value (thromboxane synthetase) was > 2,900.

For O=C(O)c1ccc(OCCn2ccnc2)cc1 [Example 16, 1-[2-(4-Carboxyphenoxy)ethyl]imidazole], the IC50 (prostacyclin synthetase [2]) was over 100000 nM and the “preventing human blood platelet aggregation” value [3] was “effective in preventing human blood platelet aggregation”.

O=C(O)c1ccccc1OCCn1ccnc1 [Example 17, 1-[2-(2-Carboxyphenoxy)ethyl]imidazole Hydrochloride] showed an IC50 (thromboxane synthetase) of 34000 nM.

In the case of O=C(O)COc1ccc(OCCn2ccnc2)cc1 [Example 18, 4-[2-(1-Imidazolyl)ethoxy]phenoxyacetic acid Hydrochloride], the IC50 (thromboxane synthetase) is reported as 4.2 nM.

Work on O=C(O)Cc1ccccc1OCCn1ccnc1 [Example 19, 2-[2-(1-Imidazolyl)ethoxy]phenylacetic acid Hydrochloride] yielded an IC50 (thromboxane synthetase) of 580 nM.

O=C(O)c1cccc(OCCn2ccnc2)c1 [Example 21, 1-[2-(3-Carboxyphenoxy)ethyl]imidazole Hydrochloride] showed an IC50 (thromboxane synthetase) of 12 nM.

With c1cn(CCOc2ccc(-c3nnn[nH]3)cc2)cn1 [Example 22, 1-[2-(4-Tetrazol-5-ylphenoxy)ethyl]imidazole] the IC50 (thromboxane synthetase) was 4.9 nM.

For NC(=O)COc1ccc(OCCn2ccnc2)cc1 [Example 23, 4-[2-(1-Imidazolyl)ethoxy]phenoxyacetamide], the IC50 (thromboxane synthetase) was 16 nM.

Compound CNC(=O)c1ccc(OCCn2ccnc2)cc1 [Example 24, 1-[2-(4-N-Methylcarbamoylphenoxy)ethyl]imidazole] has an IC50 (prostacyclin synthetase [2]) of over 100000 nM, an IC50 (cyclo-oxygenase) of over 100000 nM and an IC50 (thromboxane synthetase) of 5 nM. The “Ratio of (3) to (1)” value (thromboxane synthetase) was > 20,000.

CN(C)C(=O)c1ccc(OCCn2ccnc2)cc1 [Example 25, 1-[2-(4-N,N-Dimethylcarbamoylphenoxy)ethyl]imidazole] gave an IC50 (prostacyclin synthetase [2]) of over 100000 nM, an IC50 (cyclo-oxygenase) of over 100000 nM and an IC50 (thromboxane synthetase) of 5.6 nM. The “Ratio of (3) to (1)” value (thromboxane synthetase) was > 18,000.

O=C(c1ccc(OCCn2ccnc2)cc1)N1CCOCC1 [Example 26, 1-[4-(2-Imidazol-1-yl)ethoxybenzoyl]morpholine] showed an IC50 (thromboxane synthetase) of 10000 nM.

In the case of NC(=O)Cc1ccccc1OCCn1ccnc1 [Example 39, 1-[2-(2-Carbamoylmethylphenoxy)ethyl]imidazole], the IC50 (thromboxane synthetase) is reported as 6600 nM.

For CC(=O)Oc1ccccc1C(=O)O [aspirin], the “inhibition of the cyclo-oxygenase enzyme” value (cyclo-oxygenase enzyme) is given as “inhibit the cyclo-oxygenase enzyme”, the “protect the rabbit from the lethal effect of the injection” value (rabbits) is given as “protect the rabbit from the lethal effect of the injection” and the “inhibitory activity in vitro against a variety of aggregating agents” value [4] is given as “show inhibitory activity in vitro against a variety of aggregating agents”.

For O=C1C(CC[S+]([O-])c2ccccc2)C(=O)N(c2ccccc2)N1c1ccccc1 (stereo not shown) [sulphinpyrazone], the “prevent the aggregation of platelets in an extra corporeal loop” value (aggregation of platelets) is given as “prevent the aggregation of platelets in an extra corporeal loop of the abdominal aorta of rats in vivo”, the “protect the rabbit from the lethal effect of the injection” value (rabbits) is given as “protect the rabbit from the lethal effect of the injection” and the “inhibitory activity in vitro against a variety of aggregating agents” value [4] is given as “show inhibitory activity in vitro against a variety of aggregating agents”.
